From the NIST ThermoML archive (doi:10.1007/s10765-006-0092-8)

Details: gamma-ray densimeter

Fc1c(F)c(F)c(F)c(F)c1F [hexafluorobenzene]
mass density [kg/m3]
Details	Gas	Liquid
298.79 K	–	1605.4
323.83 K	2.3	1548.5
343.88 K	–	1499.4
363.85 K	–	1450.5
383.91 K	15.5	1397.9
403.92 K	25.8	1342.1
423.93 K	40.6	1281.2
443.9 K	62.7	1213.9
463.89 K	95.3	1135.3
483.9 K	146.7	1037.1
493.93 K	186	974
503.88 K	243.5	892.3
508.9 K	287	835.8
513.91 K	363.5	744.6
513.92 K	363.5	746.3
515.98 K	433.7	670.3
516.28 K	455.8	644.8
516.57 K	491.5	610.1
